We go through five molecules from patent US12115178B2, “Acylated active agents and methods of their use for the treatment of autoimmune disorders” (Flagship Pioneering Innovations V, Inc., priority 2018, dated 2024).

Series [1] concerns naïve CD4+ T cells. The series can be described thus: Human regulatory T cell differentiation assay. The format is cell-based. The conditions noted are these: 6 days. How it is done:
Peripheral blood mononuclear cells (PBMCs) from whole blood donated by health volunteers were separated by Ficoll-Paque gradient centrifugation and naïve CD4^+ T cells were subsequently isolated using magnet beads (EasySep™ Human Naïve CD4^+ T Cell Isolation Kit, Cambridge, MA). For regulatory T cell (Treg) differentiation assay, naïve CD4^+ T cells were cultured (1-10×10^4 cells) in CTS OpTmizer medium for 6 days and stimulated with 5 ng/ml TGF-β, 100 U/ml IL-2, and ImmunoCult™ Human […] T Cell Activator; Stemcell #10990) with/without our Compounds. Cell viability was determined using a viability dye (eBioscience Fixable Viability Dye eFluor 780: ThermoFisher 65-0865-14) at 1:500 dilution. The cells were gated for Treg, defined as Live, CD11c^−, CD14^−, CD19^−, CD8^−, CD4^+, CD3^+, CD25^+, FOXP3^+. Percent (%) Tregs were calculated as percentage of CD4^+, CD25^+, FOXP3^+ cells over total CD4 T cells. Statistical analysis was performed with GraphPad Prism Software Using One-Way ANOVA.

The test system of series [2] is neutrophil. The series can be described thus: Neutrophil chemokine production assay. The format is cell-based, human. The following applies: 12 h. How it is done: A volume 25 mL of human blood was layered over 15 mL of Histopaque®-1077 and centrifuged at 500 g, RT, for 30 min with no break applied to the centrifuge. The PBMC band and Histopaque®-1077 layer were removed leaving behind the bottom red layer which was mixed with 40 mL of 1× red blood cell (RBC) lysis buffer (Sigma-Aldrich) was and split into two 50 mL tubes. The volume for both fractions was brought to 50 mL with RBC lysis buffer, mixed by inversion, and then incubated at RT for 10 min. Solutions were centrifuged at 250 g, for 10 min at RT and the supernatant liquids removed. The reddish pellets were re-suspended in 1 mL of RBC lysis buffer and combined. The cell suspension was incubated for 5 min at RT in RBC lysis buffer. After incubation 45 mL of Hanks Balanced Salt Solution with no calcium, magnesium or phenol red (HBSS−) was added, the cell suspension was spun (250 g for 10 min at RT), and supernatant liquids were removed. The white pellet was re-suspended in 1 mL of HBSS−, and cell counts were determined. The neutrophil cell suspension was brought to a concentration of 1.11e6 cells/mL in RPMI complete (Sigma-Aldrich), and 180 μL of cell suspension was transferred to all wells within a sterile 96-well tissue culture treated plate resulting in 2.0e5 cells/well. […] After incubation, 10 μL of 2 μg/mL LPS solution in RPMI complete was added to each well except for control wells, which received an additional 10 μL of media. Cells were incubated for 12 h (37° C., 5% CO2), after which plates were centrifuged at 250 g, RT, for 5 min and supernatant liquids were obtained and stored at −80° C. until analyzed via Luminex® Multiplex Assay for various chemokines and cytokines. Three data points were acquired from two different blood donors and averaged.

Molecules are shown by their SMILES.

Consider `CC[C@H]1[C@@H](O)[C@@H]2[C@H](CC[C@]3(C)[C@@H]([C@H](C)CCC(=O)O)CC[C@@H]23)[C@@]2(C)CC[C@@H](O)C[C@@H]12` [Obeticholic acid], for which the “Cell viability % DMSO” value in series [1] (100 uM) is reported as “= (90%> <110%: =)”.
On to `CCCC(=O)O` [butyrate], for which, in series [2] (500.0 μM), the “% IL-8 (Vehicle + LPS = 100%)” value was “++ (++ = <70%Vehicle)”, the “% MIP-1α (Vehicle + LPS = 100%)” value is listed as “+++ (+++ = <50% Vehicle)” and the “% MIP-1β (DMSO + LPS = 100%)” value is reported as “+++ (+++ = <50% Vehicle)”. Also, in series [2] (1000.0 μM), the “% IL-8 (Vehicle + LPS = 100%)” value is reported as “++ (++ = <70%Vehicle)”, the “% MIP-1α (Vehicle + LPS = 100%)” value is given as “+++ (+++ = <50% Vehicle)” and the “% MIP-1β (DMSO + LPS = 100%)” value was “+++ (+++ = <50% Vehicle)”.
Regarding `CCC(=O)O` [Propionic acid], the “Cell viability % DMSO” value in series [1] (3 mM) is “= (90%> <110%: =)”.
On to `CC(O)CC(=O)[O-].[Na+]` (centres unmarked) [Sodium BHB], for which the “Cell viability % DMSO” value in series [1] (2 mM) is given as “= (90%> <110%: =)”; in series [1] (20 mM), “− (<90%: −)”. In addition, the “Treg induction % DMSO” value in series [1] (2 mM) is “+ (110%> <130%: +)”; in series [1] (20 mM), “= (90%> <110%: =)”.
For the molecule `CN(CCOc1ccc(CC2SC(=O)NC2=O)cc1)c1ccccn1` (centres unmarked) [Rosiglitazone, rosiglitazone], the “Cell viability % DMSO” value in series [1] (10 uM) was “= (90%> <110%: =)”; in series [1] (100 uM) it was “− (<90%: −)”.
